From patent US10799507B2, “5-(7H-pyrrolo[2,3-d]pyrimidin-4-yl)-5-azaspiro[2.5]octane-8-carboxylic acid derivatives as novel JAK kinase inhibitors” (LEO Pharma A/S, priority 2017, dated 2020) come the findings set out here.

The structures appear in SMILES notation.

Format in all cases: biochemical
The target in assay [1] is JAK3 (Homo sapiens (Human), UniProt P52333). Briefly: JAK kinase assay (HTRF), JAK3. The following applies: catalytic domain, ATP at Km (2 μM). On the procedure:
(§1) Human baculovirus-expressed JAK1, 2, 3 and TYK2 were purchased from Carna Biosciences, Inc. All four purified enzymes contain only the catalytic domain. JAK1 (aa 850-1154) and TYK2 (aa 871-1187) are expressed with an N-terminally fused GST-tag, and JAK2 and JAK3 with an N-terminally fused His-tag.
(§2) Inhibition of phosphorylation of a synthetic peptide was measured in an HTRF-based assay using the TK substrate-Biotin from the Cisbio HTRFKinEASE TK kit. First, 2 μl of TK solution (TK substrate-biotin in kinase buffer [1× enzymatic buffer from HTRFKinEASE TK kit, 1 mM DTT]) is added to a plate containing 1 μl prediluted compound (final assay concentration DMSO: 0.75%). Then, 5 μl kinase-ATP mix (prepared in kinase buffer) is added to the wells and the plates are incubated at RT for 20-30 min. For all four kinases a concentration of ATP that corresponded to the Km for ATP was used. The final concentrations of buffers, substrate, kinase and ATP were: JAK1: 50 mM Hepes buffer pH 7.0, 0.01% BSA, 10 mM MgCl2, 1 mM DTT, 7 μM ATP, 50 nM SEB, 1 μM TK Substrate-Biotin and 5 ng JAK1; JAK2: 50 mM Hepes buffer pH 7.0, 0.01% BSA, 5 mM MgCl2, 1 mM DTT, 4 μM ATP, 1 μM TK Substrate-Biotin and 0.1 ng JAK2; JAK3: 50 mM Hepes buffer pH 7.0, 0.01% BSA, 5 mM MgCl2, 1 mM DTT, 2 μM ATP, 1 μM TK Substrate-Biotin and 0.3 ng JAK3; TYK2: 50 mM Hepes buffer pH 7.0, 0.01% BSA, 5 mM MgCl2, 1 mM DTT, 13 μM ATP, 50 nM SEB, 1 μM TK Substrate-Biotin and 0.8 ng TYK2. Thereafter, the kinase reaction is stopped by adding 4 μl detection mix (final concentrations: 50 mM Hepes buffer pH 7.0, 0.01% BSA, 0.8 M KF, 20 mM EDTA, 42 nM Streptavidin-XL665 and 1:400 STK Ab Cryptate) and the plates are incubated overnight in the dark. The HTRF signal is read using an Envision plate reader.
(§3) In Table 1 selected JAK kinase inhibitory activities are listed along with analytical tR and observed M+H^+ data (UPLC-MS method 7).

Assay [2] addresses TYK2 (Homo sapiens (Human), UniProt P29597). As to the kind of experiment: JAK kinase assay (HTRF), TYK2. The note with it: catalytic domain, ATP at Km (13 μM). On the procedure:
as §1, §2, §3
(In general: TR-FRET usually uses a lanthanide donor and a delayed reading to cut background.)

Assay [3] concerns the target JAK2 (Homo sapiens (Human), UniProt O60674). Briefly: JAK kinase assay (HTRF), JAK2. The note with it: catalytic domain, ATP at Km (4 μM). On the procedure: as §1, §2
Assay [4] has as its target JAK1 (Homo sapiens (Human), UniProt P23458). Briefly: JAK kinase assay (HTRF), JAK1. The following applies: catalytic domain, ATP at Km (7 μM). On the procedure:
as §1, §2

JAK3, sequence (P52333 822-1111): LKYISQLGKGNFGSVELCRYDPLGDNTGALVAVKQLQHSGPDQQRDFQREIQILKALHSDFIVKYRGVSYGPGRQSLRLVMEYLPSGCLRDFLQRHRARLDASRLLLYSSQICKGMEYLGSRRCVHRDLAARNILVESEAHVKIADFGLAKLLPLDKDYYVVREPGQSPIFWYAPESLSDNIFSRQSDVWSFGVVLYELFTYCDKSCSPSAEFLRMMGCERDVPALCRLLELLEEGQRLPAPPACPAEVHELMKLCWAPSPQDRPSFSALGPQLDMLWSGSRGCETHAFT
TYK2, sequence (P29597 871-1187): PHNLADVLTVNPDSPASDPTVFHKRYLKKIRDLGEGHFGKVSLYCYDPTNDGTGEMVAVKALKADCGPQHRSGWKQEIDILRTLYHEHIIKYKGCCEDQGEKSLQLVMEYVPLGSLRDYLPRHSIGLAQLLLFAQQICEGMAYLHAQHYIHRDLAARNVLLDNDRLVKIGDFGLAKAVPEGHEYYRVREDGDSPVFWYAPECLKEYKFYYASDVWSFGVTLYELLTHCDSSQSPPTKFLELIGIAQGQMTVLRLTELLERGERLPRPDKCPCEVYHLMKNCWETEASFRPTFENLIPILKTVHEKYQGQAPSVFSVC
JAK2, sequence (O60674 849-1124): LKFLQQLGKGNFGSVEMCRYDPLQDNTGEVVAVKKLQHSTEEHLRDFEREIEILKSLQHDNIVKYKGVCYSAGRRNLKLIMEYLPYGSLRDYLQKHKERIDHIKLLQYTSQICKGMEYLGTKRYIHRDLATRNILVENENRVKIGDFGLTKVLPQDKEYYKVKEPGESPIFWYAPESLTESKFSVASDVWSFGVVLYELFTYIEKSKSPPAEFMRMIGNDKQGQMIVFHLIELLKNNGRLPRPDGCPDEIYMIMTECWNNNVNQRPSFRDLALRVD
JAK1, sequence (P23458 850-1154): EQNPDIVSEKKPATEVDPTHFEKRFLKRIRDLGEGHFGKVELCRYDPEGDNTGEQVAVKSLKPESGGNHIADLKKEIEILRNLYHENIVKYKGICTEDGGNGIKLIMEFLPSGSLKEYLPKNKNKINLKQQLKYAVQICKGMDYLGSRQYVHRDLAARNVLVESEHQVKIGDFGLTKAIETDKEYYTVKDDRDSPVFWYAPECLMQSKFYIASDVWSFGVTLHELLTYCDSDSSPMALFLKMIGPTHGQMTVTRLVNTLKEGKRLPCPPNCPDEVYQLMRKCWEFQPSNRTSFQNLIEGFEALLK

The EC50 is the concentration at which the effect is half-maximal. Low values mean greater potency, high ones weaker potency. Turning to `C[C@@H](NC(=O)[C@H]1CCN(c2ncnc3[nH]ccc23)CC12CC2)[C@@H](O)c1ccc(C#N)cc1` [Example 146, (8S)-N-[(1R,2S)-2-(4-cyanophenyl)-2-hydroxy-1-methyl-ethyl]-5-(7H-pyrrolo[2,3-d]pyrimidin-4-yl)-5-azaspiro[2.5]octane-8-carboxamide], the EC50 is 266 nM in assay [1], 1840 nM in assay [2], 188 nM in assay [3] and 67.7 nM in assay [4].

With `O=C(N[C@H](CO)C(=O)OCC1(CO)CCC1)[C@H]1CCN(c2ncnc3[nH]ccc23)CC12CC2` [Example 98, [1-(hydroxymethyl)cyclobutyl]methyl (2R)-3-hydroxy-2-[[(8S)-5-(7H-pyrrolo[2,3-d]pyrimidin-4-yl)-5-azaspiro[2.5]octane-8-carbonyl]amino]propanoate], the EC50 worked out at 44.3 nM in assay [1], 177 nM in assay [2], 15 nM in assay [3] and 8.8 nM in assay [4].

In the case of `N#Cc1ccc(CNC(=O)[C@@H]2CCN(c3ncnc4[nH]ccc34)CC23CC3)cc1` [Example 145, (8R)-N-[(4-cyanophenyl)methyl]-5-(7H-pyrrolo[2,3-d]pyrimidin-4-yl)-5-azaspiro[2.5]octane-8-carboxamide], the EC50 in assay [1] was 176 nM; in assay [2], 5740 nM; in assay [3] it was 251 nM; in assay [4] it was 64.4 nM.

For `COc1cc(CNC(=O)[C@H]2CCN(c3ncnc4[nH]ccc34)CC23CC3)ccc1C#N` [Example 93, (8S)-N-[(4-cyano-3-methoxy-phenyl)methyl]-5-(7H-pyrrolo[2,3-d]pyrimidin-4-yl)-5-azaspiro[2.5]octane-8-carboxamide], the EC50 in assay [1] is 74.1 nM; in assay [2] it was 118 nM; in assay [3], 29.3 nM; in assay [4], 8.5 nM.

Turning to `O=C(N[C@H](CO)C(=O)OCC1CCCC1)[C@H]1CCN(c2ncnc3[nH]ccc23)CC12CC2` [Example 87, cyclopentylmethyl (2R)-3-hydroxy-2-[[(8S)-5-(7H-pyrrolo[2,3-d]pyrimidin-4-yl)-5-azaspiro[2.5]octane-8-carbonyl]amino]propanoate], the EC50 is 43 nM in assay [1], 124 nM in assay [2], 25.5 nM in assay [3] and 7.2 nM in assay [4].

Regarding `C[C@](CO)(NC(=O)[C@H]1CCN(c2ncnc3[nH]ccc23)CC12CC2)c1ccc(C#N)cn1` [Example 78, (8S)-N-[(1S)-1-(5-cyano-2-pyridyl)-2-hydroxy-1-methyl-ethyl]-5-(7H-pyrrolo[2,3-d]pyrimidin-4-yl)-5-azaspiro[2.5]octane-8-carboxamide], the EC50 stood at 39.4 nM in assay [1], 231 nM in assay [2], 17 nM in assay [3] and 6.3 nM in assay [4].

Turning to `C[C@H](NC(=O)[C@H]1CCN(c2ncnc3[nH]ccc23)CC12CC2)[C@H](O)c1ccc(C#N)cc1` [Example 126, (8S)-N-[(1S,2R)-2-(4-cyanophenyl)-2-hydroxy-1-methyl-ethyl]-5-(7H-pyrrolo[2,3-d]pyrimidin-4-yl)-5-azaspiro[2.5]octane-8-carboxamide], the EC50 in assay [1] came out at 29.8 nM; in assay [2], 987 nM; in assay [3], 25.7 nM; in assay [4] it was 19.5 nM.

With `N#C[C@@H]1C[C@H]1CNC(=O)C1CCN(c2ncnc3[nH]ccc23)CC12CC2` (stereo partly drawn) [Example 102, N-[[(1R,2R)-2-cyanocyclopropyl]methyl]-5-(7H-pyrrolo[2,3-d]pyrimidin-4-yl)-5-azaspiro[2.5]octane-8-carboxamide], the concentration giving a half-maximal response (EC50) in assay [1] was 35 nM; in assay [2] it was 531 nM; in assay [3] it was 26.2 nM; in assay [4], 9.5 nM.

On to `O=C(N[C@H](CO)C(=O)OC1CCCC1)[C@H]1CCN(c2ncnc3[nH]ccc23)CC12CC2` [Example 96, cyclopentyl (2R)-3-hydroxy-2-[[(8S)-5-(7H-pyrrolo[2,3-d]pyrimidin-4-yl)-5-azaspiro[2.5]octane-8-carbonyl]amino]propanoate], for which the EC50 in assay [1] came out at 59.2 nM; in assay [2] it was 250 nM; in assay [3], 28.7 nM; in assay [4], 8.7 nM.

In the case of `Cc1cc([C@H](O)[C@H](C)NC(=O)[C@H]2CCN(c3ncnc4[nH]ccc34)CC23CC3)ncc1F` [Example 75, (8S)-N-[(1S,2R)-2-(5-fluoro-4-methyl-2-pyridyl)-2-hydroxy-1-methyl-ethyl]-5-(7H-pyrrolo[2,3-d]pyrimidin-4-yl)-5-azaspiro[2.5]octane-8-carboxamide], the EC50 in assay [1] amounted to 102 nM; in assay [2], 50.2 nM; in assay [3], 16.3 nM; in assay [4], 6.1 nM.

For `N#Cc1cccc([C@H](O)CNC(=O)[C@H]2CCN(c3ncnc4[nH]ccc34)CC23CC3)c1` [Example 106, (8S)-N-[(2S)-2-(3-cyanophenyl)-2-hydroxy-ethyl]-5-(7H-pyrrolo[2,3-d]pyrimidin-4-yl)-5-azaspiro[2.5]octane-8-carboxamide], the EC50 in assay [1] came out at 44.7 nM; in assay [2], 110 nM; in assay [3], 25.2 nM; in assay [4], 10.2 nM.

With `COc1ccc(CNC(=O)C2CCN(c3ncnc4[nH]ccc34)CC23CC3)cc1` (stereo not drawn) [Example 90, N-[(4-methoxyphenyl)methyl]-5-(7H-pyrrolo[2,3-d]pyrimidin-4-yl)-5-azaspiro[2.5]octane-8-carboxamide], the EC50 in assay [1] worked out at 34.5 nM; in assay [2], 288 nM; in assay [3] it was 19.6 nM; in assay [4], 8.2 nM.

`O=C(N[C@H](CO)c1ccccn1)[C@H]1CCN(c2ncnc3[nH]ccc23)CC12CC2` [Example 135, (8S)-N-[(1S)-2-hydroxy-1-(2-pyridyl)ethyl]-5-(7H-pyrrolo[2,3-d]pyrimidin-4-yl)-5-azaspiro[2.5]octane-8-carboxamide]: the EC50 is 148 nM in assay [1], 466 nM in assay [2], 83.8 nM in assay [3] and 33.2 nM in assay [4].

Consider `NS(=O)(=O)c1cccc(CNC(=O)C2CCN(c3ncnc4[nH]ccc34)CC23CC3)c1` (stereo not drawn) [Example 55, 5-(7H-pyrrolo[2,3-d]pyrimidin-4-yl)-N-[(3-sulfamoylphenyl)methyl]-5-azaspiro[2.5]octane-8-carboxamide], for which the EC50 in assay [1] stood at 13.4 nM; in assay [2], 141 nM; in assay [3], 18.5 nM; in assay [4], 3.7 nM.

For `COc1cc(F)ccc1[C@H](CO)NC(=O)[C@H]1CCN(c2ncnc3[nH]ccc23)CC12CC2` [Example 109, (8S)-N-[(1R)-1-(4-fluoro-2-methoxy-phenyl)-2-hydroxy-ethyl]-5-(7H-pyrrolo[2,3-d]pyrimidin-4-yl)-5-azaspiro[2.5]octane-8-carboxamide], the EC50 was 111 nM in assay [1], 243 nM in assay [2], 24.5 nM in assay [3] and 10.5 nM in assay [4].

Consider `C[C@H](NC(=O)[C@H]1CCN(c2ncnc3[nH]ccc23)CC12CC2)[C@@H](O)c1ccccn1` [Example 104, (8S)-N-[(1S,2R)-2-hydroxy-1-methyl-2-(2-pyridyl)ethyl]-5-(7H-pyrrolo[2,3-d]pyrimidin-4-yl)-5-azaspiro[2.5]octane-8-carboxamide], for which the EC50 in assay [1] was found to be 163 nM; in assay [2], 149 nM; in assay [3] it was 30.3 nM; in assay [4] it was 10.1 nM.

As for `NS(=O)(=O)c1ccc(CNC(=O)C2CCN(c3ncnc4[nH]ccc34)CC23CC3)cc1` (stereo not drawn) [Example 33, 5-(7H-pyrrolo[2,3-d]pyrimidin-4-yl)-N-[(4-sulfamoylphenyl)methyl]-5-azaspiro[2.5]octane-8-carboxamide], the EC50 in assay [1] was determined as 6 nM; in assay [2], 28.9 nM; in assay [3], 5 nM; in assay [4], 1.9 nM.

Consider `O=C(NCC1(O)CCCC1)C1CCN(c2ncnc3[nH]ccc23)CC12CC2` (stereo not drawn) [Example 88, N-[(1-hydroxycyclopentyl)methyl]-5-(7H-pyrrolo[2,3-d]pyrimidin-4-yl)-5-azaspiro[2.5]octane-8-carboxamide], for which the EC50 in assay [1] is 58.6 nM; in assay [2], 407 nM; in assay [3], 23.7 nM; in assay [4], 7.2 nM.
